Assay results from US20170355708A1, “POTASSIUM CHANNEL MODULATORS” (Cadent Therapeutics, Inc., priority 2016, published 2017).

Molecular target: T1, hSK2 channels (Homo sapiens, UniProt P0DP23+Q9H2S1)
T1 construct: expressed in transfected cells; host or cells: HEK293
Experiment: Whole-cell patch-clamp recording of SK2 channel current (SC100)
Assay type: cell-based
Details: Stimulating Concentration required for increasing the baseline current by 100%; HEK293 cells expressing hSK2; Table 3
Procedure: The biological activity of certain compounds were determined as follows. The ionic current through small-conductance Ca^2+-activated K^+ channels (SK channels, subtype 2) is recorded using the whole-cell configuration of the patch-clamp technique in a classic patch-clamp set-up using HEK293 tissue culture cells expressing hSK2 channels as described in Kasumu et. al., Chemistry & Biology 19, 1340-1353, Oct. 26, 2012.
The SC100 value determined is defined as the Stimulating Concentration required for increasing the baseline current by 100%.

SC100 uM | SMILES
++ (++ means 200 nM-1000 nM) | Cc1cc(C)n(-c2nc(Nc3ccc(Cl)cc3)nc3c2ncn3CC#N)n1 [Compound 130, 2-(2-((4-chlorophenyl)amino)-6-(3,5-dimethyl-1H-pyrazol-1-yl)-9H-purin-9-yl)acetonitrile]
+ (+ means >1 uM) | Cc1cc(C)n(-c2nc(Nc3ccc(Cl)cc3)nc3c2ncn3CCN)n1 [Compound 133, 9-(2-aminoethyl)-N-(4-chlorophenyl)-6-(3,5-dimethyl-1H-pyrazol-1-yl)-9H-purin-2-amine]
++ (++ means 200 nM-1000 nM) | Cc1cc(C)n(-c2nc(Nc3ccc(F)c(F)c3)cc(NC3C4CN(Cc5ccccc5)CC43)n2)n1 (stereo not shown) [Compound 134, N4-(3-benzyl-3-azabicyclo[3.1.0]hexan-6-yl)-N6-(3,4-difluorophenyl)-2-(3,5-dimethyl-1H-pyrazol-1-yl)pyrimidine-4,6-diamine]
++ (++ means 200 nM-1000 nM) | Cc1cc(C)n(-c2nc(Nc3ccc(Cl)cc3)nc3c2ncn3CCO)n1 [Compound 135, 2-(2-((4-chlorophenyl)amino)-6-(3,5-dimethyl-1H-pyrazol-1-yl)-9H-purin-9-yl)ethan-1-ol]
+++ (+++ means <200 nM) | Cc1cc(Nc2ccc(Cl)c(C(F)(F)F)c2)nc(-n2ccc(C)n2)n1 [Compound 136, N-(4-chloro-3-(trifluoromethyl)phenyl)-6-methyl-2-(3-methyl-1H-pyrazol-1-yl)pyrimidin-4-amine]
+ (+ means >1 uM) | Cc1cc(Nc2ccc(F)cc2)nc(-n2ccc(CO)n2)n1 [Compound 137, (1-(4-((4-fluorophenyl)amino)-6-methylpyrimidin-2-yl)-1H-pyrazol-3-yl)methanol]
+ (+ means >1 uM) | Cc1cc(Nc2ccc(F)cc2)nc(-n2ccc(C(C)(C)O)n2)n1 [Compound 138, 2-(1-(4-((4-fluorophenyl)amino)-6-methylpyrimidin-2-yl)-1H-pyrazol-3-yl)propan-2-ol]
+ (+ means >1 uM) | Cc1cc(Nc2ccc(F)cc2)nc(-n2ccc(C(C)O)n2)n1 (stereo not shown) [Compound 140, 1-(1-(4-((4-fluorophenyl)amino)-6-methylpyrimidin-2-yl)-1H-pyrazol-3-yl)ethan-1-ol]
++ (++ means 200 nM-1000 nM) | Cc1cc(Nc2ccc(F)cc2)nc(-n2ccc(CF)n2)n1 [Compound 141, 2-(3-(fluoromethyl)-1H-pyrazol-1-yl)-N-(4-fluorophenyl)-6-methylpyrimidin-4-amine]
++ (++ means 200 nM-1000 nM) | Cc1cc(Nc2ccc(Cl)cc2)nc(-n2ccc(C(C)(C)O)n2)n1 [Compound 142, 2-(1-(4-((4-chlorophenyl)amino)-6-methylpyrimidin-2-yl)-1H-pyrazol-3-yl)propan-2-ol]
++ (++ means 200 nM-1000 nM) | N#Cc1ccn(-c2nc(Nc3ccc(Cl)cc3)cc(N3CC4(COC4)C3)n2)n1 [Compound 143, 1-(4-((4-chlorophenyl)amino)-6-(2-oxa-6-azaspiro[3.3]heptan-6-yl)pyrimidin-2-yl)-1h-pyrazole-3-carbonitrile]
+ (+ means >1 uM) | Cc1cc(C)n(-c2cc3ccn(C)c3c(Nc3ccc(Cl)cc3)n2)n1 [Compound 144, N-(4-chlorophenyl)-5-(3,5-dimethyl-1H-pyrazol-1-yl)-1-methyl-1H-pyrrolo [2,3-c]pyridin-7-amine]
++ (++ means 200 nM-1000 nM) | Cc1cc(Nc2ccc(Cl)cc2)nc(-n2ccc(C(C)(C)O)n2)c1 [Compound 145, 2-(1-(6-((4-chlorophenyl)amino)-4-methylpyridin-2-yl)-1H-pyrazol-3-yl)propan-2-ol]
+ (+ means >1 uM) | CC(O)c1ccn(-c2nc(Nc3ccc(F)cc3)cc(N3CCOCC3)n2)n1 (stereo not shown) [Compound 146, 1-(1-(4-((4-fluorophenyl)amino)-6-morpholinopyrimidin-2-yl)-1H-pyrazol-3-yl)ethan-1-ol]
++ (++ means 200 nM-1000 nM) | CC(C)(O)c1ccn(-c2nc(Nc3ccc(Cl)cc3)cc(N3CC4(COC4)C3)n2)n1 [Compound 147, 2-(1-(4-((4-chlorophenyl)amino)-6-(2-oxa-6-azaspiro [3.3]heptan-6-yl)pyrimidin-2-yl)-1H-pyrazol-3-yl)propan-2-ol]
+ (+ means >1 uM) | CC(C)(O)c1ccn(-c2nc(Nc3ccc(F)cc3)cc(N3CCOCC3)n2)n1 [Compound 148, 2-(1-(4-((4-fluorophenyl)amino)-6-morpholinopyrimidin-2-yl)-1H-pyrazol-3-yl)propan-2-ol]
++ (++ means 200 nM-1000 nM) | OCc1ccn(-c2nc(Nc3ccc(Cl)cc3)cc(N3CCOCC3)n2)n1 [Compound 149, (1-(4-((4-chlorophenyl)amino)-6-morpholinopyrimidin-2-yl)-1H-pyrazol-3-yl)methanol]

SC100 uM | SMILES
++ (++ means 200 nM-1000 nM) | CC(O)c1ccn(-c2nc(Nc3ccc(Cl)cc3)cc(N3CC4(COC4)C3)n2)n1 (stereo not shown) [Compound 150, 1-(1-(4-((4-chlorophenyl)amino)-6-(2-oxa-6-azaspiro[3.3]heptan-6-yl)pyrimidin-2-yl)-1H-pyrazol-3-yl)ethan-1-ol]
++ (++ means 200 nM-1000 nM) | FCc1ccn(-c2nc(Nc3ccc(Cl)cc3)cc(N3CCOCC3)n2)n1 [Compound 151, N-(4-chlorophenyl)-2-(3-(fluoromethyl)-1H-pyrazol-1-yl)-6-morpholinopyrimidin-4-amine]
+++ (+++ means <200 nM) | CC(F)c1ccn(-c2nc(Nc3ccc(Cl)cc3)cc(N3CC4(COC4)C3)n2)n1 (stereo not shown) [Compound 152, N-(4-chlorophenyl)-2-(3-(1-fluoroethyl)-1H-pyrazol-1-yl)-6-(2-oxa-6-azaspiro[3.3]heptan-6-yl)pyrimidin-4-amine]
+ (+ means >1 uM) | CC(O)c1ccn(-c2nc(Nc3ccc(F)cc3)cc(N3CC4(COC4)C3)n2)n1 (stereo not shown) [Compound 153, 1-(1-(4-((4-fluorophenyl)amino)-6-(2-oxa-6-azaspiro[3.3]heptan-6-yl)pyrimidin-2-yl)-1H-pyrazol-3-yl)ethan-1-ol]
++ (++ means 200 nM-1000 nM) | FC(F)c1ccn(-c2nc(Nc3ccc(Cl)cc3)cc(N3CCOCC3)n2)n1 [Compound 154, N-(4-chlorophenyl)-2-(3-(difluoromethyl)-1H-pyrazol-1-yl)-6-morpholinopyrimidin-4-amine]
+ (+ means >1 uM) | CC(C)(O)c1ccn(-c2nc(Nc3ccc(F)cc3)cc(N3CC4(COC4)C3)n2)n1 [Compound 155, 2-(1-(4-((4-fluorophenyl)amino)-6-(2-oxa-6-azaspiro[3.3]heptan-6-yl)pyrimidin-2-yl)-1H-pyrazol-3-yl)propan-2-ol]
+ (+ means >1 uM) | OCc1ccn(-c2nc(Nc3ccc(F)cc3)cc(N3CCOCC3)n2)n1 [Compound 156, (1-(4-((4-fluorophenyl)amino)-6-morpholinopyrimidin-2-yl)-1H-pyrazol-3-yl)methanol]
++ (++ means 200 nM-1000 nM) | FCc1ccn(-c2nc(Nc3ccc(F)cc3)cc(N3CCOCC3)n2)n1 [Compound 157, 2-(3-(fluoromethyl)-1H-pyrazol-1-yl)-N-(4-fluorophenyl)-6-morpholinopyrimidin-4-amine]
+++ (+++ means <200 nM) | Fc1ccc(Nc2cc(N3CCOCC3)nc(-n3ccc(C(F)F)n3)n2)cc1 [Compound 158, 2-(3-(difluoromethyl)-1H-pyrazol-1-yl)-N-(4-fluorophenyl)-6-morpholinopyrimidin-4-amine]
+++ (+++ means <200 nM) | CC(=O)NCc1cc(Nc2ccc(F)cc2)nc(-n2ccc(CF)n2)c1 [Compound 159, N-((2-(3-(fluoromethyl)-1H-pyrazol-1-yl)-6-((4-fluorophenyl)amino)pyridin-4-yl)methyl)acetamide]
+ (+ means >1 uM) | CC(=O)NCc1cc(Nc2ccc(F)cc2)nc(-n2ccc(C(F)F)n2)c1 [Compound 160, N-((2-(3-(difluoromethyl)-1H-pyrazol-1-yl)-6-((4-fluorophenyl)amino)pyridin-4-yl)methyl)acetamide]
+++ (+++ means <200 nM) | CC(=O)NCc1cc(Nc2ccc(F)cc2)nc(-n2cc(C)c(CF)n2)c1 [Compound 161, N-((2-(3-(fluoromethyl)-4-methyl-1H-pyrazol-1-yl)-6-((4-fluorophenyl)amino)pyridin-4-yl)methyl)acetamide]
++ (++ means 200 nM-1000 nM) | FCc1ccn(-c2nc(Nc3ccc(F)cc3)cc(OC3COC3)n2)n1 [Compound 162, 2-(3-(fluoromethyl)-1H-pyrazol-1-yl)-N-(4-fluorophenyl)-6-(oxetan-3-yloxy)pyrimidin-4-amine]
++ (++ means 200 nM-1000 nM) | Cc1cn(-c2nc(Nc3ccc(F)cc3)cc(OC3COC3)n2)nc1CF [Compound 163, 2-(3-(fluoromethyl)-4-methyl-1H-pyrazol-1-yl)-N-(4-fluorophenyl)-6-(oxetan-3-yloxy)pyrimidin-4-amine]
+++ (+++ means <200 nM) | CC(=O)NCc1cc(Nc2ccc(Cl)cc2)nc(-n2ccc(CF)n2)c1 [Compound 164, N-((2-((4-chlorophenyl)amino)-6-(3-(fluoromethyl)-1H-pyrazol-1-yl)pyridin-4-yl)methyl)acetamide]
++ (++ means 200 nM-1000 nM) | CC(=O)NCc1cc(Nc2ccc(Cl)cc2)nc(-n2ccc(C(F)F)n2)c1 [Compound 165, N-((2-((4-chlorophenyl)amino)-6-(3-(difluoromethyl)-1H-pyrazol-1-yl)pyridin-4-yl)methyl)acetamide]
+ (+ means >1 uM) | CC(=O)NCc1cc(Nc2ccc(F)cc2)nc(-n2cc(C)c(CO)n2)c1 [Compound 166, N-((2-((4-fluorophenyl)amino)-6-(3-(hydroxymethyl)-4-methyl-1H-pyrazol-1-yl)pyridin-4-yl)methyl)acetamide]
